Assay results taken from patent US20240216384A1, “COMPOSITION FOR PREVENTING OR TREATING METABOLIC DISEASES, CONTAINING TRICYCLO DERIVATIVE COMPOUND” (ONCOCROSS CO.,LTD., priority 2021, published 2024).
Where a name gives a salt, the structure may show the parent alone.

Tests used:
HepG2 cell line = assay: Oleic acid-induced fat accumulation, Oil-Red O staining; format: cell-based; settings: for fat accumulation inhibitory effect: HepG2 treated with oleic acid, Oil-Red O
Experimental: By treating the HepG2 cell line, a liver cancer cell line, with oleic acid, fat accumulation was induced into cells, and simultaneously, JPI-289 was treated together to identify the effect of JPI-289 on inhibiting fat accumulation using the Oil-Red O staining method. Herein, INT-747, a drug that succeeded in phase 3 clinical trials for NASH indication, was treated as a positive control group.

STAM™ mouse model [1] = assay: STAM mouse model, long-term (6 weeks) administration; format: in vivo
Experimental: After administering JPI-289 (10 mg/kg) for a total of 6 weeks from 6 to 12 weeks in the same manner as in Example 6 (FIG. 19), the fibrosis area was checked.
After administering JPI-289 (10 mg/kg) for a total of 6 weeks from 6 to 12 weeks in the same manner as in Example 6, the NAFLD score and ballooning score were checked to identify the degree of inhibition of fatty liver.

PARylation = PARylation in Hep3B cells in NASH environment (H2O2, TCDD); format: cell-based; settings: 10 uM, 24 hours, 300 uM H2O2, TCDD 10 nM, compared to PJ-34
Experimental: (§1) A MOA study was conducted to identify the mechanism that has a more significant effect than other PARP inhibitors as in Example 3-1. Specifically, the Hep3B cell line was treated with 300 uM H2O2 for 2 hours to generate a ROS rich situation for NASH, and treated with TCDD (Tetrachlorodibenzo-p-dioxin) at 10 nM for 24 hours to induce overexpression of TIPARP. Then, PARylation was identified, and the influences of JPI-289 (10 uM and 24 hours) and PJ34 (10 uM and 24 hours) were identified, respectively. In addition, DMOG, which induces hypoxia by inhibiting the degradation of HIF-1α, a hypoxia-related gene that appears in the early stages of fibrosis, was treated at 1 mM for 24 hours, and the influences of JPI-289 (10 uM and 24 hours) and PJ34 (10 uM and 24 hours) were also identified. In addition, as a positive control group, it was compared with INT-747, a drug that successfully completed phase 3 clinical trials for NASH indication.

HIF-1α [2] = assay: HIF-1α expression in Hep3B cells upon DMOG; format: cell-based; settings: 10 uM, 24 hours, DMOG 1 mM
Experimental: as §1

TIPARP = TIPARP expression in Hep3B cells upon TCDD; format: cell-based; settings: for expression of TIPARP: 10 uM, 24 hours, upon TCDD administration (FIG. 7B)
Experimental: as §1

TGF-beta2 = TGF-beta2 inhibition at RNA level in Hep3B cells; format: cell-based; settings: compared to INT-747
Experimental: as §1
The inhibitory effects of TGF-beta2 (a downstream signal of HIF-1) by JPI-289 and INT-747 in Hep3B cell line were compared at the RNA level under the same conditions as in Example 4-1.

PARP1 = PARP1 expression in Hep3B cells upon TCDD; format: cell-based; settings: compared to INT-747-treated group
Experimental: as §1

STAM™ mouse model [3] = assay: STAM mouse model, short-term (3 weeks) administration; format: in vivo
Experimental: Streptozotocin was administered on the second day after birth, and a high-fat diet was administered starting 4 weeks after birth, causing non-alcoholic steatohepatitis (NASH) at 7 to 8 weeks of age. To identify the effect of JPI-289 on NASH and early fibrosis in the STAM™ mouse model (FIG. 15) in which fibrosis is induced by steatohepatitis at 9 to 12 weeks, the drug was administered at 10 mg/kg and 50 mg/kg, respectively for a total of 3 weeks, from 6 to 9 weeks, and the fibrosis-induced area was identified (FIG. 16).
JPI-289 was administered as in Example 6-1, and the NAFLD score and ballooning score were identified as values for evaluating fatty liver.

[4] = system: MCF7, PC3, and HL60 cell lines; assay: MTT analysis of JPI-289 toxicity in multiple cell lines; format: cell-based
Experimental: To identify the toxicity of JPI-289 to cells, MTT analysis was performed using three cell lines: MCF7, PC3, and HL60 (indicated as Cell 1 to Cell 3 in FIG. 1, respectively). Specifically, each cell line was treated with a control group, a DMSO control group (vehicle control), and JPI-289 (10-ethoxy-8-(morpholinomethyl)-2,3,4,6-tetrahydrobenzo[h][1,6]naphthyridin-5(1H)-one dihydrochloride dihydrate) at concentrations of 0.5, 1, 5, 10, 20, and 40 uM, and then treated with MTT tetrazolium after 24, 48, and 72 hours. Then, the cell viability was measured by forming formazan crystals, dissolving the same using DMSO (dimethyl sulfoxide), and measuring the absorbance using an ELISA reader.

3T3L1 cell line = assay: MTT analysis of JPI-289 toxicity in preadipocyte cell line; format: cell-based, mouse; settings: 0.05 to 5 uM for 24, 48, or 72 hours
Experimental: The 3T3L1 cell line, a preadipocyte cell line, was dispensed in a 96-well plate, and treated with JPI-289 at a concentration of 0.05 to 5 uM for 24, 48, or 72 hours, and MTT analysis was performed.

HIF-1α [5] = assay: HIF-1α expression in liver of high-fat diet mice, tissue immunochemical analysis; format: in vivo; settings: JPI-289 50 mpk for 6 weeks, compared to PJ34 (10 mpk) or INT-747 (10 mpk)
Experimental: To identify the HIF-1 inhibitory effect of INT-747 and JPI-289 in Example 4-1 also in vivo, 5-week-old mice were placed on a high-fat diet (HFD) 1 week after introduction. After 6 weeks, JPI-289 (50 mpk), PJ34 (10 mpk), and INT-747 (10 mpk) were administered for a total of 6 weeks, respectively, and the level of HIF-1α expression in the liver was identified by tissue immunochemical analysis.

[6] = system: mouse preadipocyte cell line 3T3L1; assay: Adipocyte differentiation / fat accumulation, Oil-Red O staining; format: cell-based; settings: for differentiation into adipocytes: 3T3L1, Oil-Red O
Experimental: To induce differentiation of mouse preadipocyte cell line 3T3L1 into adipocytes, DMEM medium containing 10% FBS was treated with insulin, dexamethasone, and isobutylmetylxanthin (IBMX). JPI-289 was treated with a differentiation medium from the start day of inducing differentiation into adipocytes to the end of differentiation. At the end of differentiation, cells were fixed and differentiated adipocytes were stained red using Oil-Red O. The degree of staining was recorded in a photograph, Oil Red was dissolved, and the O.D. value was measured using an ELISA reader.
To identify the inhibitory effect of JPI-289 at a concentration of 5 uM or less on adipocyte differentiation, a re-experiment was performed on the 3T3L1 cell line. Specifically, JPI-289s at concentrations of 0.05, 0.1, 0.25, 0.5, 1, and 2.5 uM were treated together with the differentiation culture medium, respectively, to induce differentiation into adipocytes, and the differentiation into adipocytes and fat accumulation were identified by staining using Oil-Red O.
The fat accumulation inhibitory effects of other PARP inhibitors, 5-AIQ (10 uM), PJ34 (10 uM), and olaparib (5 uM), and JPI-289 (0.25 to 2.5 uM) were compared in the mouse preadipocyte cell line 3T3L1 by the method of Example 2 above.

vimentin = assay: Vimentin expression in Hep3B cells upon TCDD; format: cell-based; settings: compared to INT-747-treated group
Experimental: as §1

[7] = system: high-fat diet mouse model; assay: High-fat diet animal model: body weight, liver size and weight; format: in vivo; settings: 6 weeks; for liver size and weight: compared to high-fat diet group
Experimental: A high-fat diet animal model was created, and after 6 weeks, JPI-289 (JPI) and a positive control group of INT-747 (INT) were administered for a total of 6 weeks (FIG. 12), and body weight, liver size, and weight were checked. As a result, weight loss was identified in the group administered 50 mpk of JPI-289 compared to the high-fat diet group and the INT-747 administration group (FIG. 13). In addition, compared to the high-fat diet group, liver size and weight were decreased in the JPI-289 10 mpk administration group, JPI-289 50 mpk administration group, and INT-747 10 mpk administration group.

[8] = 10 mg/kg, 6 weeks, compared to control group

With `CC[C@H]1[C@@H](O)[C@@H]2[C@H](CC[C@]3(C)[C@@H]([C@H](C)CCC(=O)O)CC[C@@H]23)[C@@]2(C)CC[C@@H](O)C[C@@H]12` [INT-747, reference compound] the “fat accumulation inhibitory effect” value (HepG2 cell line) was “about 13%”.
`CCOc1cc(CN2CCOCC2)cc2[nH]c(=O)c3c(c12)NCCC3` [JPI-289, 10-ethoxy-8-(morpholinomethyl)-2,3,4,6-tetrahydrobenzo[h][1,6]naphthyridin-5(1H)-one dihydrochloride dihydrate] was tested, and the fibrosis area (STAM™ mouse model [1]; 10 mg/kg, 6 weeks (6 to 12 weeks), compared to Vehicle) was “significantly decreased”, the NAFLD score (STAM™ mouse model [1]; [8]) was “significantly decreased” and the ballooning score (STAM™ mouse model [1]; [8]) was “decreased”. The “overall effect versus control group” value (STAM™ mouse model [1]; low dose for 6 weeks) was “superior effect compared to the control group”, the PARylation (PARylation) was “significantly inhibited” and the “expression of HIF-1α” value (HIF-1α [2]) was “significantly decreased”. For the same molecule, the “expression of TIPARP” value (TIPARP) was “significantly increased”, the TIPARP (TIPARP; upon TCDD, compared to INT-747-treated group (FIG. 8)) was “increased” and the “TGF-beta2 at the RNA level” value (TGF-beta2) was “significantly inhibited”. The “expression of PARP1” value (PARP1) was “significantly decreased”, the NAFLD score (STAM™ mouse model [3]; 10 mg/kg and 50 mg/kg, 3 weeks) was “decrease” and the ballooning score (STAM™ mouse model [3]; 10 mg/kg and 50 mg/kg, 3 weeks) was “decrease”. For the same molecule, the fibrosis area (STAM™ mouse model [3]; 10 mg/kg and 50 mg/kg, 3 weeks (6 to 9 weeks of age)) was “significantly decreased”, the “overall effect versus control group” value (STAM™ mouse model [3]; administered for 3 weeks, all dose groups) was “more effective than the control group” and the “toxicity to cells (MTT cell viability)” value ([4]; concentrations of 20 and 40 uM) was “toxic”. The “toxicity to cells (MTT cell viability)” value ([4]; up to a concentration of 10 uM, for 72 hours) was “not toxic”, the “toxicity (MTT analysis)” value (3T3L1 cell line) was “no significant effect” and the “HIF-1α expression in the liver” value (HIF-1α [5]) was “significantly decreased”. For the same molecule, the fat accumulation decrease ([6]; 250 nM (0.25 uM), 3T3L1) was “about 37%”, the differentiation into adipocytes ([6]; 5 uM or higher) was “inhibited depending on the concentration” and the “fat accumulation in 3T3L1 cells” value ([6]; 5 uM or higher, Oil-Red O) was “significantly decreased”. The differentiation into adipocytes ([6]; 0.05 to 2.5 uM) was “inhibited depending on the concentration”, the “fat accumulation inhibitory effect compared to olaparib 5 uM” value ([6]; JPI-289 2.5 uM, 3T3L1) was “similar” and the “fat accumulation inhibitory effect compared to 5-AIQ (10 uM) and PJ34 (10 uM)” value ([6]; JPI-289 0.25 to 2.5 uM, 3T3L1) was “significantly superior”. The inhibition at 0.05 µM ([6]; Mus musculus, 3T3-L1, 50 nM (0.05 uM), 3T3L1, read-out: differentiation inhibitory effect) was ~15%, the “expression of vimentin, a fibrosis marker” value (vimentin) was “decreased” and the “concentration dependence of fat accumulation inhibition” value (HepG2 cell line; HepG2, high concentrations) was “more effective at high concentrations”. For the same molecule, the “fat accumulation inhibitory effect” value (HepG2 cell line) was “about 21%”, the “liver size and weight” value ([7]; 10 mpk) was “decreased” and the “liver size and weight” value ([7]; 50 mpk) was “significant decrease”. For the same molecule, the body weight ([7]; 50 mpk, compared to high-fat diet group and INT-747 group) was “weight loss”.
In the case of `CN(C)CC(=O)Nc1ccc2[nH]c(=O)c3ccccc3c2c1` [PJ34, reference compound], the “expression of HIF-1α” value (HIF-1α [2]) is reported as “did not decrease” and the “expression of TIPARP” value (TIPARP) is reported as “almost no increase”.
